Assay results taken from patent publication US7737146B2, “Compound, useful for pancreatic lipase inhibition and the process for isolation thereof” (Council of Scientific and Industrial Research, priority 2005, dated 2010).
“Also recorded” adds a separate entry of the source.

Assay: solubility in solvents and buffers
Assay type: physicochemical

In the case of `CCCCCCCCCCCC/C=C/CCCCC(=O)Oc1nc2ccccc2nc1OP(O)(=S)OCCCCCCCCCCCCCCCC` (stereo not shown) [streptolipin, Nonadeca-6-enoic acid-3-(hexadecyloxy-hydroxy-thiophosphoryloxy)-quinoxalin-2-yl ester], the Solubility response (5% acetic acid) was “Insoluble”, the Solubility response (5% sodium bicarbonate) was “Insoluble” and the Solubility response (5% sodium hydroxide) was “Insoluble”. For the same compound, the Solubility response (Acetone) was “Soluble”, the Solubility response (Acetonitrile) was “slightly soluble; also recorded: Sparingly soluble” and the Solubility response (Chloroform) was “Soluble”. The Solubility response (Diethyl ether) was “slightly soluble; also recorded: Sparingly soluble”, the Solubility response (Dimethyl sulphoxide) was “Soluble” and the Solubility response (Ethanol) was “Sparingly soluble”. For the same compound, the Solubility response (Ethyl acetate) was “slightly soluble; also recorded: Sparingly soluble”, the Solubility response (Hexane) was “Sparingly soluble” and the Solubility response (Methanol) was “slightly soluble; also recorded: Sparingly soluble”. The Solubility response (Phosphate buffer (pH 7.4-8.0)) was “Insoluble”, the Solubility response (acetate buffer (pH 5.0, 6.0)) was “Insoluble” and the Solubility response (tris buffer (pH 8.0, 9.0)) was “Insoluble”. For the same compound, the Solubility response (water) was “Insoluble”.
